Experimental data reported in ChEMBL document CHEMBL3507680, “University of Dundee, Gates Library screen for HepG2 cell viability”.

Test: Human HepG2 cell viability assay in 384 well format
Assay type: toxicity, cell-based
Parameters: dose 125 nL, time 70.5 hour; concentration not given beside the values
Conditions: HepG2 cells, read-out: Inhibition

| Structure (SMILES) | cytotoxicity at 70.5 h |
| --- | --- |
| Cc1ccc(C(C(=O)NCCN2CCCCCC2)N(C)C)cc1 (stereo not given) | 5.23% |
| Cc1cccc(C2CCCN(C(=O)CN3CCCC3=O)C2)c1 (stereo not given) | -21.9% |
| Cc1cc(C)n(CCN(C)Cc2c[nH]nc2-c2ccc3c(c2)OCO3)n1 | -5.98% |
| CC(C)OC(=O)N1C[C@H]2CC[C@@H]1CN(Cc1cccnc1)C2 | -3.17% |
| CN1CCN(Cc2noc(CCc3nc(-c4ccccc4)no3)n2)CC1 | -6.63% |
| O=C(Nc1nc(-c2ccccc2)ns1)N1CCC(F)CC1 | -3.26% |
| NCc1n[nH]c(=O)n1-c1ccccc1Oc1ccccc1 | 9.56% |
| CC(C)(C)c1ncc2c(n1)CN(C(=O)c1ccc(C#N)nc1)C2 | 11.4% |
| O=C(CCc1n[nH]c2c1CCCC2)N1C[C@@H]2CC[C@H](C1)N(CC1CC1)C2 | -7.45% |
| Cc1cc2ccccc2n1CCC(=O)NCCN(C)S(C)(=O)=O | -13.9% |
| CN(C)C(C(=O)N1CCN(CCn2cccc2)CC1)c1cccc(F)c1 (stereo not given) | 2.13% |
| O=C(O)[C@@H]1CN(C(=O)CSCCN2CCCC2)C[C@H]1c1ccccc1 | 1.16% |
| COCC(=O)N1CCCN(Cc2cc(O)c3ccccc3n2)CC1 | -9.45% |
| O=C(c1ccc(-c2ccsc2)nc1)N1CCCN(C2CCCCC2)CC1 | 17% |
| COc1ccc2cc(C3CN(C(=O)CN4CCCC4)CCO3)ccc2c1 (stereo not given) | 2.28% |
| CN(Cc1cc(C2CC2)[nH]n1)C(=O)c1cnn2ccn(C)c12 | -10.4% |
| CC(C)(N)c1cn([C@@H]2c3ccccc3C3(CCNCC3)[C@H]2O)nn1 | -4.25% |
| Cc1nnnn1-c1ccc(CC(=O)N2CCOCC(O)C2)cc1 (stereo not given) | -6.4% |
| COC(=O)c1ccc(CNC2CC(=O)N(Cc3cccc(F)c3)C2)cc1 (stereo not given) | 0.023% |
| Cc1ccccc1SC1CCN(C(=O)[C@@H]2C[C@@H](N)CN2)CC1 | -2.11% |
| Cc1ccc(NCCCNC(=O)C2CC3(CCNCC3)CN2C)nc1 (stereo not given) | -10.5% |
| CCc1nc(CN(C)C(=O)CSC)no1 | -11.3% |
| CCc1cc(N(C)CCCO)n2nccc2n1 | -4.76% |
| CSc1cccc(CN2CCC(CCC(=O)NCCN(C)C)CC2)c1 | -6.05% |
| CCN(Cc1ccccn1)Cc1cc(Cl)ccc1OC | 2.41% |
| CCN(C)S(=O)(=O)NCC1CCN(Cc2ccccc2F)C1 (stereo not given) | -10.5% |
| CCC1CN(C(=O)c2ccccc2N(C)C)CCN1C(C)C (stereo not given) | 1.87% |
| COCc1cn(C2CCN(C(=O)c3ccc(F)c(C)c3)CC2)nn1 | -6.36% |

| Structure (SMILES) | cytotoxicity at 70.5 h |
| --- | --- |
| O=C(NCc1c(F)cccc1Cl)c1cc(CN2CCCC(O)C2)on1 (stereo not given) | -13.8% |
| O=c1cc(N2CCc3ccccc3C2)cnn1CCC1CCOC1 (stereo not given) | 1.4% |
| COCCN(C)CC(=O)N1C[C@@H](NC(C)=O)[C@H](c2ccc(OC)cc2)C1 | -17.6% |
| CCN(CC)C(=O)[C@@H]1C[C@H](N)CN1c1nnc(-c2ccccc2)s1 | 18.2% |
| Cc1nc(C(C)NC(=O)c2cn(Cc3ccc(Cl)cc3)nn2)n[nH]1 (stereo not given) | -1.77% |
| OCCC1CN(c2nc(-c3ccncc3)nc3c2CCNCC3)CCO1 (stereo not given) | 2.55% |
| CN1CCCC(CCC(=O)N2CCc3[nH]c(-c4ccccc4)nc3C2)C1 (stereo not given) | 20.8% |
| Cc1n[nH]c(C)c1CC(=O)N1CCN(C)C2(CCNC(=O)CC2)C1 (stereo not given) | -4.03% |
| O=C1[C@@H]2CN(c3ncnc4[nH]ccc34)C[C@]2(C(=O)O)CN1CC1CC1 | -9.8% |
| O=C(NCCn1cccc1)C1CCCN(C2CCCC2)C1 (stereo not given) | 7.15% |
| CCCC(C)NCc1cccnc1N1CCN(c2ccccn2)CC1 (stereo not given) | -5.62% |
| Cc1[nH]c(-c2ccccc2)nc1C(=O)N1CCc2[nH]cnc2C1C(=O)O (stereo not given) | -8.84% |
| CCCOC(=O)NCCC1CN(c2cnn(C)c(=O)c2)CCO1 (stereo not given) | -10.5% |
| COCCC1(CO)CCCN(Cc2cc(C(F)(F)F)ccc2F)C1 (stereo not given) | -1.42% |
| O=C(COc1cccc(F)c1)N1C[C@@H](CN2CCCC2)C[C@H](CO)C1 | 0.446% |
| COc1ccc2c(c1)OCC(CNC(=O)c1cc[nH]c1C)C2 (stereo not given) | -19.4% |
| CCNC(=O)[C@@H]1C[C@H](N)CN1C(=O)C1(c2ccc(OC)cc2)CCCC1 | -10.3% |
| CCn1cc(CN2CCC(NS(C)(=O)=O)CC2)cc1C#N | -3.22% |
| CN1CCO[C@@H]2CN(C(=O)c3ccc4[nH]ccc4c3)CC[C@@H]2C1 | -10.4% |
| CCN1CCO[C@@H]2CN(C(=O)c3ccc4[nH]ccc4c3)CC[C@@H]2C1 | -7.4% |
| O=C(NC1CC1)[C@@H]1CCO[C@@H]2CCN(CC3CCC3)C[C@H]21 | -2.8% |
| COCCN1CCOCC12CCN(c1nccs1)CC2 | -20.8% |
| O=C(NCc1cnc2n1CCN(Cc1ccoc1)C2)c1ccno1 | -0.405% |
| Cc1cnc(N2C[C@H]3CCCC(N(C)Cc4ccccn4)[C@H]3C2)nc1 (stereo not given in full) | -9.85% |
| Cc1ccc(CN2CCCC3(CCCCN3S(C)(=O)=O)C2)s1 (stereo not given) | 19.2% |
| Cc1cccc(CN2CCOC3(CCCN(CC(=O)N(C)C)C3)C2)n1 (stereo not given) | -5.53% |
| CN1CCN(Cc2cccnc2)C(=O)C12CCN(C1CCOC1)CC2 (stereo not given) | -5.29% |
